The values below come from patent US9695155B2, “Herbicidal substituted pyrimidinyloxy benzene compounds” (E. I. DU PONT DE NEMOURS AND COMPANY, priority 2013, dated 2017).

The test system of one test is corn. The experiment in a line: Test E preemergence. The format is in vivo, Zea mays. The note with it: for Corn plant response rating: scale 0 to 100 (0 no effect, 100 complete control). An excerpt:
(§1) Seeds of plant species selected from corn (Zea mays), soybean (Glycine max), velvetleaf (Abutilon theophrasti), lambsquarters (Chenopodium album), wild poinsettia (Euphorbia heterophylla), palmer pigweed (Amaranthus palmeri), waterhemp (common waterhemp, Amaranthus rudis), surinam grass (Brachiaria decumbens), large (Lg) crabgrass (Digitaria sanguinalis), Brazilian crabgrass (Digitaria horizontalis), fall panicum (Panicum dichotomiflorum), giant foxtail (Setaria faberii), green foxtail (Setaria viridis), goosegrass (Eleusine indica), johnsongrass (Sorghum halepense), ragweed (common ragweed, Ambrosia elatior), barnyardgrass (Echinochloa crus-galli), sandbur (southern sandbur, Cenchrus echinatus), arrowleaf sida (Sida rhombifolia), Italian ryegrass (Lolium multiflorum), dayflower (Virginia (VA) dayflower, Commelina virginica), field bindweed (Convolvulus arvensis), morningglory (Ipomoea coccinea), nightshade (eastern black nightshade, Solanum ptycanthum), kochia (Kochia scoparia), yellow nutsedge (Cyperus esculentus), cocklebur (common cocklebur, Xanthium strumarium), smartweed (ladysthumb smartweed, and hairy beggarticks (Bidens pilosa), were planted into a silt loam soil and treated preemergence with test chemicals formulated in a non-phytotoxic solvent mixture which included a surfactant.
(§2) At the same time, plants from these crop and weed species and also horseweed (Canada horseweed, Conyza canadensis), waterhemp_RES1, (ALS & Triazine resistant common waterhemp, Amaranthus rudis), and waterhemp_RES2, (ALS & HPPD resistant common waterhemp, Amaranthus rudis) were planted in pots containing Redi-Earth® planting medium (Scotts Company, 14111 Scottslawn Road, Marysville, Ohio 43041) comprising spaghnum peat moss, vermiculite, wetting agent and starter nutrients were treated with postemergence applications of test chemicals formulated in the same manner. Plants ranged in height from 2 to 18 cm for postemergence treatments (1- to 4-leaf stage). Treated plants and controls were maintained in a greenhouse for 14 to 21 days, after which time all species were compared to controls and visually evaluated. Plant response ratings, summarized in Table E, are based on a scale of 0 to 100 where 0 is no effect and 100 is complete control. A dash (-) response means no test result.

The next test concerns lambsquarters. The experiment in a line: Test E preemergence. The format is in vivo, Chenopodium album. Particulars: for Lambsquarters plant response rating: scale 0 to 100 (0 no effect, 100 complete control).
Description: as §1, §2

The next test has as its system surinam grass. The experiment in a line: Test E preemergence. The note with it: for Surinam Grass plant response rating: scale 0 to 100 (0 no effect, 100 complete control). The format is in vivo, Brachiaria decumbens.
Description: as §1, §2

Another test has as its system johnsongrass. In words: Test E preemergence. The note with it: for Johnsongrass plant response rating: scale 0 to 100 (0 no effect, 100 complete control). The format is in vivo, Sorghum halepense.
Description: as §1, §2

A further test has as its system nightshade. In words: Test E preemergence. It counts as in vivo, Solanum ptycanthum. The note with it: for Nightshade plant response rating: scale 0 to 100 (0 no effect, 100 complete control).
Description: as §1, §2

For another test, the system named is kochia. The experiment in a line: Test E preemergence. The format is in vivo, Kochia scoparia. The note with it: for Kochia plant response rating: scale 0 to 100 (0 no effect, 100 complete control).
Description: as §1, §2

Test [1] has as its system waterhemp_RES2 (ALS & HPPD resistant common waterhemp). In words: Test E postemergence. The format is in vivo, Amaranthus rudis. The note with it: Amaranthus tuberculatus, post-emergence, read-out: Plant response rating, Waterhemp_RES2.
Description: as §1, §2

Another test concerns waterhemp. In words: Test E postemergence. The format is in vivo, Amaranthus rudis. The note with it: Amaranthus tuberculatus, post-emergence, read-out: Plant response rating, Waterhemp.
Description: as §1, §2

For another test, the system named is Brazilian crabgrass. In words: Test E postemergence. The note with it: Digitaria horizontalis, post-emergence, read-out: Plant response rating, Crabgrass, Brazil. The format is in vivo, Digitaria horizontalis.
Description: as §1, §2

A further test has as its system sandbur. In words: Test E postemergence. It counts as in vivo, Cenchrus echinatus. Particulars: Cenchrus echinatus, post-emergence, read-out: Plant response rating, Sandbur.
Description: as §1, §2

Setting [2] is: 8 g ai/ha, scale 0 to 100, 0 is no effect, 100 is complete control.
Where [3] appears, read: 125 g ai/ha, scale 0 to 100, 0 no effect, 100 complete control.
Where [4] appears, read: Postemergence, 31 g ai/ha, scale 0 to 100.
[5] abbreviates: Postemergence, 62 g ai/ha, scale 0 to 100.
The mark [6] stands for this setting: Postemergence, 125 g ai/ha, scale 0 to 100.
The mark [7] stands for this setting: Postemergence, 250 g ai/ha, scale 0 to 100.
Where [8] appears, read: postemergence, 16 g ai/ha, scale 0 to 100, 0 no effect, 100 complete control.

On to `FC(F)c1cccc(Oc2ncc(Cl)cn2)c1-n1cc(C(F)(F)F)cn1` [Compound 170], for which the “Plant response rating, Corn” value with corn (setting [2]) is 0; in the test with corn (setting [3]) it was 30. The “Corn plant response rating” value in the test with corn (16 g ai/ha) worked out at 0; in the test on corn (31 g ai/ha), 20; with corn (62 g ai/ha), 10. Also, the “Plant response rating, Lambsquarters” value with lambsquarters (setting [2]) was determined as 0; in the test on lambsquarters (setting [3]) it was 100. In addition, the entries for the “Lambsquarters plant response rating” value with lambsquarters (31 g ai/ha) and with lambsquarters (62 g ai/ha) were 98 and 100, respectively. In addition, the “Plant response rating, Surinam Grass” value in the test with surinam grass (setting [2]) is given as 0; in the test with surinam grass (setting [3]), 25. The “Surinam Grass plant response rating” value with surinam grass (31 g ai/ha) was determined as 0; in the test with surinam grass (62 g ai/ha), 15. In addition, the “Plant response rating, Johnsongrass” value with johnsongrass (setting [2]) came to 15; in the test with johnsongrass (setting [3]), 70. In addition, the “Johnsongrass plant response rating” value in the test on johnsongrass (31 g ai/ha) is listed as 15; in the test on johnsongrass (62 g ai/ha) it was 25. Also, the “Plant response rating, Nightshade” value in the test with nightshade (setting [2]) is 0; in the test with nightshade (setting [3]), 98. In addition, the “Nightshade plant response rating” value was found to be 50 in the test with nightshade (31 g ai/ha) and 98 in the test on nightshade (62 g ai/ha). In addition, the “Plant response rating, Kochia” value in the test with kochia (setting [2]) came to 0; in the test on kochia (setting [3]), 98. The “Kochia plant response rating” value was found to be 30 with kochia (31 g ai/ha) and 90 in the test on kochia (62 g ai/ha).
As for `Clc1cnn(-c2ccccc2Oc2ncc(Br)cn2)c1` [Compound 5, 5-bromo-2-[2-(4-chloro-1H-pyrazol-1-yl)phenoxy]pyrimidine], the pest or weed control at 31 g/ha in test [1] (setting [4]) stood at 70%; in the test on waterhemp (setting [4]), 80%; with Brazilian crabgrass (setting [4]), 5%; in the test with sandbur (setting [4]), 0%. Further, the pest or weed control at 62 g/ha was determined as 80% in test [1] (setting [5]), 90% with waterhemp (setting [5]), 10% in the test on Brazilian crabgrass (setting [5]) and 0% in the test on sandbur (setting [5]). Besides, the pest or weed control at 125 g/ha turned out to be 90% in test [1] (setting [6]), 95% in the test with waterhemp (setting [6]), 10% in the test on Brazilian crabgrass (setting [6]) and 10% with sandbur (setting [6]). For the same compound, the pest or weed control at 250 g/ha in test [1] (setting [7]) was 95%; in the test on waterhemp (setting [7]), 98%; in the test with Brazilian crabgrass (setting [7]) it was 20%; in the test with sandbur (setting [7]) it was 20%. Besides, the pest or weed control at 16 g/ha in test [1] (setting [8]) stood at 60%; with waterhemp (setting [8]), 70%; in the test on Brazilian crabgrass (setting [8]), 0%; in the test on sandbur (setting [8]) it was 0%.
As to `Cc1cnc(Oc2cccc(C#N)c2-n2cc(C#N)cn2)nc1` [Compound 90], the “Corn plant response rating” value in the test on corn (16 g ai/ha), with corn (31 g ai/ha) and with corn (62 g ai/ha) was 0 each time. Further, the “Plant response rating, Corn” value with corn (setting [3]) is recorded as 0. In addition, the “Lambsquarters plant response rating” value is on record as 5 with lambsquarters (16 g ai/ha), 75 with lambsquarters (31 g ai/ha) and 50 in the test on lambsquarters (62 g ai/ha). The “Plant response rating, Lambsquarters” value with lambsquarters (setting [3]) was determined as 100. Moreover, the “Surinam Grass plant response rating” value in the test with surinam grass (16 g ai/ha), in the test with surinam grass (31 g ai/ha) and in the test on surinam grass (62 g ai/ha) was 0 each time. Moreover, in the test with surinam grass (setting [3]), the “Plant response rating, Surinam Grass” value was determined as 0. In addition, the “Johnsongrass plant response rating” value in the test with johnsongrass (16 g ai/ha), in the test on johnsongrass (31 g ai/ha) and with johnsongrass (62 g ai/ha) was 0 throughout. In addition, in the test on johnsongrass (setting [3]), the “Plant response rating, Johnsongrass” value is 15. For the same compound, the figures for the “Nightshade plant response rating” value in the test with nightshade (16 g ai/ha), in the test with nightshade (31 g ai/ha) and in the test on nightshade (62 g ai/ha) were 10, 10 and 80, respectively. The “Plant response rating, Nightshade” value in the test with nightshade (setting [3]) is given as 80. In addition, the “Kochia plant response rating” value in the test on kochia (16 g ai/ha) was 0; with kochia (31 g ai/ha), 50; in the test on kochia (62 g ai/ha), 100. In addition, in the test with kochia (setting [3]), the “Plant response rating, Kochia” value is 100.
`Fc1cnc(Oc2cccc(C(F)F)c2-n2cc(C(F)(F)F)cn2)nc1` [Compound 164]: the “Corn plant response rating” value in the test with corn (16 g ai/ha), with corn (31 g ai/ha) and with corn (62 g ai/ha) was 0 in each case. In addition, the “Plant response rating, Corn” value with corn (setting [3]) was determined as 0. Further, the “Lambsquarters plant response rating” value was 75 in the test on lambsquarters (31 g ai/ha) and 98 in the test with lambsquarters (62 g ai/ha). Further, the “Plant response rating, Lambsquarters” value with lambsquarters (setting [3]) is on record as 100. In addition, the entries for the “Surinam Grass plant response rating” value in the test with surinam grass (31 g ai/ha) and with surinam grass (62 g ai/ha) were 0 and 20, respectively. Moreover, the “Plant response rating, Surinam Grass” value in the test with surinam grass (setting [3]) was 20. Further, the “Johnsongrass plant response rating” value is 0 in the test on johnsongrass (31 g ai/ha) and 10 with johnsongrass (62 g ai/ha). The “Plant response rating, Johnsongrass” value in the test on johnsongrass (setting [3]) is reported as 70. For the same compound, the results for the “Nightshade plant response rating” value in the test with nightshade (31 g ai/ha) and in the test on nightshade (62 g ai/ha) were 50 and 80, respectively. Also, in the test with nightshade (setting [3]), the “Plant response rating, Nightshade” value was 95. Besides, the “Kochia plant response rating” value in the test on kochia (31 g ai/ha) worked out at 0; in the test with kochia (62 g ai/ha), 75. Besides, the “Plant response rating, Kochia” value in the test with kochia (setting [3]) is reported as 100.
